# Patent US12622968B2, “Formulation for oral delivery of proteins, peptides and small molecules with poor permeability” (R.P. Scherer Technologies, LLC, priority 2019, dated 2026)
# “And” between values parts separate entries of the source, which are not always exact repeats. Equal entries are not always repeated. Where two headings read alike, the source gives them in different places.
# Experiment: Single dose oral capsule pharmacokinetics of BHV-3500 in dogs (plasma LC-MS/MS)
# Assay type: in vivo, beagle dogs
# Conditions: for AUC(0-t): read-out: AUC0-4 hr; for concentration at 0.5 h: 0.5 h post-dose
# Description: The pharmacokinetics (PK) of BHV-3500 after a single oral capsule of BHV-3500 in dogs were investigated.
# After each dose, blood samples (approximately 3 mL from the jugular vein) for determination of plasma levels of BHV-3500 were obtained from of each dog at six time points (pre-dose; 15, 30, and 60 minutes and 2 and 4 hours post-dose. EDTA was used as the anticoagulant. Plasma samples were frozen at approximately −70′C until analyzed.
# For the determination of BHV-3500 in plasma, a 50 μL aliquot from each sample was transferred into the appropriate well of a 96-well plate to which 10 μL of 50% acetonitrile (ACN) in water was added, followed by 250 μL of internal standard solution (10 ng/mL BHV-3500-d8 in ACN). After sealing the plate and vortexing for approximately 5 minutes, the plate was centrifuged at 4,000 rpm for 10 minutes at 4±4° C. A portion (100 μL) of the resulting supernatant was transferred to into the appropriate well (containing 300 μL 0.15% formic acid in water) of another 96-well plate. This plate was sealed and its contents mixed prior to instrumental analysis.
# Freshly prepared BHV-3500 standard curves and QC samples were analyzed along with the study samples. Instrument calibrators were prepared by adding 10 μL of a stock BHV-3500 solution to 50 μL of blank dog plasma. Blank dog plasma was sourced from BioIVT (Hicksville, NY) and stored frozen at −20° C. Nominal calibrator concentrations ranged from 2.00 to 200 ng/mL. QC samples were prepared at concentrations of 6.00, 50.0 and 150 ng/mL. Calibrators and QC samples were processed for analysis following the extraction procedure described above.
# Calibrator, QC and study samples were analyzed under LC-S/MS instrument conditions detailed in Table 7.
# Calibration curves were calculated from the linear regression (weighting factor of 1/x2) of the analyte to internal standard peak area ratios versus the analyte concentrations. Concentrations of analyte in the samples were determined using the peak area ratios and the regression parameters of the calibration curves.
# Individual animal plasma BHV-3500 concentration data at scheduled (nominal) sampling times were analyzed using the non-compartmental model f r extravascular administration with Phoenix WinNonlin software (Version 8.1; Certara, Princeton, NJ).
# Elimination rate constant values (λz) were calculated by log-linear regression on data points of the terminal phase (using Phoenix WinNonlin's Best Fit Lambda Z Calculation Method option) when allowed by the data; the plasma elimination half-life (t1/2) was calculated as ln(2)/λz. Area under the plasma concentration-time curve values from time zero to the concentration at the 4 hour time point (AUC0-4 hr) were calculated by the linear-up/log-down trapezoidal rule.
# Nominal dose levels were used for PK analysis. The PK parameters listed below were evaluated (as applicable and when allowed by the data). • Elimination half-life (t1/2) • Time of occurrence of maximum plasma concentration (Tmax) • Maximum plasma concentration (Cmax) • Area under plasma concentration-time curve [0 to the 4 hour time point; AUC0-4hr]
# [1] = Group 6, oral capsule, 50 mg BHV-3500 in 25 mg DDM, individual dogs
# [2] = female, beagle, dog, plasma, po, 20 mg, Group 3, oral capsule, 20 mg BHV-3500 in 25 mg DDM, average
# [3] = female, beagle, dog, plasma, po, 20 mg, Group 3, oral capsule, 20 mg BHV-3500 in 25 mg DDM, individual dogs
structure (smiles),measurement,setting,value
"Cc1cc(C[C@@H](NC(=O)N2CCC(c3cc4ccccc4[nH]c3=O)CC2)C(=O)N2CCN(C3CCN(C)CC3)CC2)cc2cn[nH]c12 [BHV-3500, (R)—N-(3-(7-methyl-1H indazol-5-yl)-1-(4-(1-methylpiperidin-4-yl)piperazin-1-yl)-1-oxopropan-2-yl)-4-(2-oxo-1,2 dihydroquinolin-3-yl)piperidine-1-carboxamide]",BHV-3500 Concentration in Dog Plasma,"Group 6, oral capsule, 50 mg BHV-3500 in 25 mg DDM, 2 h post-dose, individual dogs",BQL (BQL = below quantitation limit (2.0 ng/mL))
same,BHV-3500 Concentration in Dog Plasma,"Group 6, oral capsule, 50 mg BHV-3500 in 25 mg DDM, 4 h post-dose, individual dogs",BQL (BQL = below quantitation limit (2.0 ng/mL))
same,AUC0-4 hr,[1],10.6 ng·h/mL and 24.0 ng·h/mL
same,Cmax,[1],5.34 ng/mL and 2.42 ng/mL and 12.0 ng/mL
same,Tmax,[1],1 h
same,concentration at 2 h,"female, beagle, dog, plasma, oral, 20 mg, Group 2, 20 mg with Vehicle 6, 2 hours post-dose, read-out: mean plasma exposure",22 nM
same,concentration at 2 h,"female, beagle, dog, plasma, oral, 20 mg, Group 3, 20 mg with DDM, 2 hours post-dose, read-out: mean plasma exposure",29.5 nM
same,concentration at 1 h,"female, beagle, dog, plasma, oral, 50 mg, Group 5, 50 mg with Vehicle 6, 1 hour post-dose, read-out: mean plasma exposure",18 nM
same,concentration at 2 h,"female, beagle, dog, plasma, oral, 50 mg, Group 5, 50 mg with Vehicle 6, 2 hours post-dose, read-out: mean plasma exposure",63.3 nM
same,concentration at 4 h,"female, beagle, dog, plasma, oral, 50 mg, Group 6, 50 mg with DDM, 4 hours post-dose, read-out: mean plasma exposure",13.5 nM
same,concentration at 1 h,"female, beagle, dog, plasma, po, 20 mg, Group 2, oral capsule, 20 mg BHV-3500 in 900 mg vehicle of Formulation 2 (SEDDS excipients), 1 h post-dose, average, read-out: BHV-3500 Concentration in Dog Plasma",2.57 ng/mL
same,concentration at 2 h,"female, beagle, dog, plasma, po, 20 mg, Group 2, oral capsule, 20 mg BHV-3500 in 900 mg vehicle of Formulation 2 (SEDDS excipients), 2 h post-dose, average, read-out: BHV-3500 Concentration in Dog Plasma",14.2 ng/mL
same,concentration at 4 h,"female, beagle, dog, plasma, po, 20 mg, Group 2, oral capsule, 20 mg BHV-3500 in 900 mg vehicle of Formulation 2 (SEDDS excipients), 4 h post-dose, average, read-out: BHV-3500 Concentration in Dog Plasma",3.09 ng/mL
same,AUC(0-t),"female, beagle, dog, plasma, po, 20 mg, Group 2, oral capsule, 20 mg BHV-3500 in 900 mg vehicle of Formulation 2 (SEDDS excipients), average",19.8 ng·h/mL
same,Cmax,"female, beagle, dog, plasma, po, 20 mg, Group 2, oral capsule, 20 mg BHV-3500 in 900 mg vehicle of Formulation 2 (SEDDS excipients), average, read-out: Cmax",14.2 ng/mL
same,AUC(0-t),"female, beagle, dog, plasma, po, 20 mg, Group 2, oral capsule, 20 mg BHV-3500 in 900 mg vehicle of Formulation 2 (SEDDS excipients), individual dogs",19.8 ng·h/mL
same,Tmax,"female, beagle, dog, plasma, po, 20 mg, Group 2, oral capsule, 20 mg BHV-3500 in 900 mg vehicle of Formulation 2 (SEDDS excipients), individual dogs, read-out: Tmax",2 h
same,Tmax,"female, beagle, dog, plasma, po, 20 mg, Group 2, oral capsule, 20 mg BHV-3500 in 900 mg vehicle of Formulation 2 (SEDDS excipients), median, read-out: Tmax",2 h
same,concentration at 0.5 h,[2],14 ng/mL
same,concentration at 0.5 h,[3],14 ng/mL
same,concentration at 1 h,"female, beagle, dog, plasma, po, 20 mg, Group 3, oral capsule, 20 mg BHV-3500 in 25 mg DDM, 1 h post-dose, average, read-out: BHV-3500 Concentration in Dog Plasma",3.56 ng/mL
same,concentration at 1 h,"female, beagle, dog, plasma, po, 20 mg, Group 3, oral capsule, 20 mg BHV-3500 in 25 mg DDM, 1 h post-dose, individual dogs, read-out: BHV-3500 Concentration in Dog Plasma",3.56 ng/mL
same,concentration at 2 h,"female, beagle, dog, plasma, po, 20 mg, Group 3, oral capsule, 20 mg BHV-3500 in 25 mg DDM, 2 h post-dose, average, read-out: BHV-3500 Concentration in Dog Plasma",18.9 ng/mL
same,concentration at 4 h,"female, beagle, dog, plasma, po, 20 mg, Group 3, oral capsule, 20 mg BHV-3500 in 25 mg DDM, 4 h post-dose, average, read-out: BHV-3500 Concentration in Dog Plasma",2.18 ng/mL
same,concentration at 4 h,"female, beagle, dog, plasma, po, 20 mg, Group 3, oral capsule, 20 mg BHV-3500 in 25 mg DDM, 4 h post-dose, individual dogs, read-out: BHV-3500 Concentration in Dog Plasma",2.18 ng/mL
same,AUC(0-t),[2],48.1 ng·h/mL
same,Cmax,"female, beagle, dog, plasma, po, 20 mg, Group 3, oral capsule, 20 mg BHV-3500 in 25 mg DDM, average, read-out: Cmax",17.3 ng/mL
same,AUC(0-t),[3],48.1 ng·h/mL
